From PMC10290117, “Molecular mechanism of phosphopeptide neoantigen immunogenicity” (Nature Communications, 2023)

Test system: TCR27-AKD10R3 cells
Experiment: X-scan (peptide scan), EGFP reporter effector cells
Type: cell-based, murine
Settings: Fig. 1c source data, HLA B*07, T2 cells pulsed with 25 μg peptide per 1 × 10^6 cells, 2 h, 37 °C, effector cells 2:1 overnight, mean value of triplicate
Experimental: Tap-deficient T2 (174x CEM.T2) HLA-B*0702+ cells were received from Dr. Victor Engelhard. These and the commercially purchased Tap-deficient T2 (174 x CEM.T2) cells (ATCC CRL 1991) were maintained in RPMI 1640 (BioConcept) supplemented with 10% fetal calf serum (FCS, HyClone), 2mM L-glutamine and 1% Penicillin/Streptomycin at 37 °C and 5% CO2. The EGFP reporter cell line was based on a murine TCR negative thymoma cell line derived from strain BW5417 (ATCC®TIB-47TM) and was stably transduced with (a) TCR27 in which the human constant regions were replaced with those of mouse, (b) a chimeric mouse/human CD8, and (c) an EGFP reporter construct linked to a minimal IL-2 promoter comprising three NFAT-binding sites (3xNFAT)[44]. The transduced cells were termed TCR27-AKD10R3 cells and will be called the effector cells. Mouse cell lines were cultured in SF-IMDM (BioConcept) supplemented with 3% FCS, 1% Penicillin/Streptomycin, and 50 μM beta-mercaptoethanol at 37 °C and 10% CO2.
Peptides were dissolved in dimethyl sulfoxide (DMSO) at concentrations of 2–20 mg/mL, aliquoted and stored at −80 °C. Peptide-pulsing experiments were performed by pre-incubating T2 cells with 25 μg peptide per 1 × 10^6 cells in PBS for 2 h at 37 °C and 5% CO2, washed three times to remove unbound peptides and used for further downstream analysis. Peptide-pulsed T2 cells were incubated with effector cells in a 2:1 ratio overnight in SF-IMDM at 37 °C and 10% CO2, washed twice and stained with anti-mouse TCR-® chain clone H57-597 (BD Pharmingen #560656, 1:500) for 30 min at RT. Cells were washed twice before FACS-analysis using a BD FACS Canto II with System software v2.0. Data analysis was performed using FlowJo V10 Software. Binding affinity between each peptide and HLA-B*0702 was determined using an Alpha assay. It is a homogenous, proximity-based assay for detection of peptides binding to HLA class I molecules using a conformation-dependent anti-HLA class I antibody, W6/32, as one tag and a biotinylated recombinant HLA class I molecule as the other tag, and a proximity-based signal was generated through the luminescent oxygen channeling immunoassay technology (PerkinElmer) as described.
To identify the off-target peptides we have utilized an approach that was developed previously. In brief, we investigated which amino acids at each position in pMLL747–755 enable TCR interaction by sequentially replacing every amino acid position outside of the anchor positions 2 and 9 with all 19 alternative amino acids, resulting in 134 peptides (133 altered peptides plus original epitope). Each peptide was individually evaluated using cell-based in vitro cytotoxicity assay. To represent the TCR recognition kernel, we have defined Position Weight Matrices (PWMs) for each assay by assigning normalized measurements to each of the 20 amino acids in each position. To predict potential off-target peptides, we applied an algorithm projecting the PWM-defined kernel into the human proteome, scoring TCR27 recognition for the predicted HLA-B^*0702 binding 9-mer peptides. Of the 11 peptides with highest predicted cross-reactivity scores, we confirmed that only 2, […] and pDOT1L998–1006, strongly activated the TCR27-expressing effector T cells.

Substance	Percentage GFP positive from TCR+ cells [%]
EPRsPHHSM [single-residue substitution of pMLL747–755, Pos 6]	2.09
EPRsPIHSM [single-residue substitution of pMLL747–755, Pos 6]	0.85
EPRsPKHSM [single-residue substitution of pMLL747–755, Pos 6]	0.87
EPRsPLHSM [single-residue substitution of pMLL747–755, Pos 6]	0.96
EPRsPMHSM [single-residue substitution of pMLL747–755, Pos 6]	0.73
EPRsPNHSM [single-residue substitution of pMLL747–755, Pos 6]	12.1
EPRsPPHSM [single-residue substitution of pMLL747–755, Pos 6]	0.96
EPRsPQHSM [single-residue substitution of pMLL747–755, Pos 6]	0.89
EPRsPRHSM [single-residue substitution of pMLL747–755, Pos 6]	0.98
EPRsPSASM [single-residue substitution of pMLL747–755, Pos 7]	0.88
EPRsPSCSM [single-residue substitution of pMLL747–755, Pos 7]	0.97
EPRsPSDSM [single-residue substitution of pMLL747–755, Pos 7]	0.72
EPRsPSESM [single-residue substitution of pMLL747–755, Pos 7]	1.15
EPRsPSFSM [single-residue substitution of pMLL747–755, Pos 7]	0.97
EPRsPSGSM [single-residue substitution of pMLL747–755, Pos 7]	0.85
EPRsPSHAM [single-residue substitution of pMLL747–755, Pos 8]	8.72
EPRsPSHCM [single-residue substitution of pMLL747–755, Pos 8]	4.53
EPRsPSHDM [single-residue substitution of pMLL747–755, Pos 8]	5.87
EPRsPSHEM [single-residue substitution of pMLL747–755, Pos 8]	8.26
EPRsPSHFM [single-residue substitution of pMLL747–755, Pos 8]	1.28
EPRsPSHGM [single-residue substitution of pMLL747–755, Pos 8]	1.39
EPRsPSHHM [single-residue substitution of pMLL747–755, Pos 8]	3.9
EPRsPSHIM [single-residue substitution of pMLL747–755, Pos 8]	3.8
EPRsPSHKM [single-residue substitution of pMLL747–755, Pos 8]	2.14
EPRsPSHLM [single-residue substitution of pMLL747–755, Pos 8]	6.68
EPRsPSHMM [single-residue substitution of pMLL747–755, Pos 8]	5.43
EPRsPSHNM [single-residue substitution of pMLL747–755, Pos 8]	2.91

Substance	Percentage GFP positive from TCR+ cells [%]
EPRsPSHPM [single-residue substitution of pMLL747–755, Pos 8]	2.91
EPRsPSHQM [single-residue substitution of pMLL747–755, Pos 8]	2.83
EPRsPSHRM [single-residue substitution of pMLL747–755, Pos 8]	1.29
EPRsPSHTM [single-residue substitution of pMLL747–755, Pos 8]	1.97
EPRsPSHVM [single-residue substitution of pMLL747–755, Pos 8]	3.82
EPRsPSHWM [single-residue substitution of pMLL747–755, Pos 8]	0.87
EPRsPSHYM [single-residue substitution of pMLL747–755, Pos 8]	1.1
EPRsPSISM [single-residue substitution of pMLL747–755, Pos 7]	1.77
EPRsPSKSM [single-residue substitution of pMLL747–755, Pos 7]	0.69
EPRsPSLSM [single-residue substitution of pMLL747–755, Pos 7]	0.77
EPRsPSMSM [single-residue substitution of pMLL747–755, Pos 7]	1.05
EPRsPSNSM [single-residue substitution of pMLL747–755, Pos 7]	1.24
EPRsPSPSM [single-residue substitution of pMLL747–755, Pos 7]	0.81
EPRsPSQSM [single-residue substitution of pMLL747–755, Pos 7]	2.94
EPRsPSRSM [single-residue substitution of pMLL747–755, Pos 7]	1.16
EPRsPSSSM [single-residue substitution of pMLL747–755, Pos 7]	1.6
EPRsPSTSM [single-residue substitution of pMLL747–755, Pos 7]	3.23
EPRsPSVSM [single-residue substitution of pMLL747–755, Pos 7]	2.51
EPRsPSWSM [single-residue substitution of pMLL747–755, Pos 7]	1.19
EPRsPSYSM [single-residue substitution of pMLL747–755, Pos 7]	2.33
EPRsPTHSM [single-residue substitution of pMLL747–755, Pos 6]	1.88
EPRsPVHSM [single-residue substitution of pMLL747–755, Pos 6]	0.85
EPRsPWHSM [single-residue substitution of pMLL747–755, Pos 6]	0.66
EPRsPYHSM [single-residue substitution of pMLL747–755, Pos 6]	0.75
EPRsQSHSM [single-residue substitution of pMLL747–755, Pos 5]	0.72
EPRsRSHSM [single-residue substitution of pMLL747–755, Pos 5]	0.73
EPRsSSHSM [single-residue substitution of pMLL747–755, Pos 5]	0.79
